Key:
Fischer 344 male rats = assay: Morris water maze spatial memory test; type: in vivo; settings: fed 7 weeks, 5 per group, SD around 20%
Text: FIG. 1 of 2 depicts measurements of spatial memory in (Fischer 344 male rats) subjected to a water maze test, after treatment with carnitine, lipoic acid, and/or polyphenol. […] The Morris maze task tests spatial memory by requiring rats to find a submerged platform in a pool of water using external visual cues (Morris, R. 1984; J. Neurosci. Methods, 11:47-60; Schenk, F. and Morris, R, Exp. Brain Res. 58:11-28, 1985). The rats in the experimental group (5 each) were fed either 0.5% (wt/vol) acetyl-L-carnitine in water, 1.0% (wt/vol) polyphenol in water; 0.2% (wt/wt) lipoic acid in AIN93M diet, or a combination of the above. Rats were acclimated for one week before experiments. Rats were fed for the above treatment for 7 weeks before tests. Trials (4 consecutive days, 4 trials per day) were conducted and the results averaged. The standard deviation is around 20%. Control rats were fed with water and AIN93M diet only.

[1] = test system: 8-hydroxy-2′-deoxyguanosine/8-hydroxyguanosine; assay: Oxidation level of DNA in hippocampus sections (anti-8-hydroxy-2′-deoxyguanosine/8-hydroxyguanosine immunocytochemistry); type: in vivo, rats; settings: rat hippocampus, fed 7 weeks, mean of 5 animals, SD about 15%
Text: The rats in the experimental group (5 each) were fed either 0.5% (wt/vol) acetyl-L-carnitine in water, 1.0% (wt/vol) polyphenol in water; 0.2% (wt/wt) lipoic acid in AIN93M diet, or a combination of the above. Rats were acclimated for one week before experiments. Rats were fed for the above treatment for 7 weeks before tests. Control rats were fed with water and AIN93M diet only. For assaying DNA oxidation, rats from each treatment group (5 animals per group) was anesthetized with ether and perfused with paraformaldehyde. The brain was removed and postfixed for paraffin sections. Sections of hippocampus were incubated with anti-8-hydroxy-2′-deoxyguanosine/8-hydroxyguanosine and visualized by using standard immunocytochemical methods. Quantification of oxidation was done as described in Liu, J K, et al., (Proc. Natl. Acad. Sci. USA, 99:[…], 2002). Values are a mean of 5 animals. The standard deviation is about 15%.

[2] = test system: men and women diagnosed with a recent MI; settings: 4 grams/day for 12 months plus standard pharmacological treatment; control group 12.5%; cited from earlier work

SMILES | mastery of the water maze over no treatment (Fischer 344 male rats) | DNA oxidation level compared with rats having no treatment [1] | mortality after one year of treatment [2] [%]
O=C(O)CCCCC1CCSS1 (centres unmarked) [lipoic acid, 1,2-dithiolane-3-pentanoic acid] | ~79% | ~82% | 
C[N+](C)(C)CC(O)CC(=O)[O-] (centres unmarked) [carnitine] | approximately 80% | approximately 112% | 
C[N+](C)(C)C[C@H](O)CC(=O)[O-] [L-carnitine] |  |  | 1.2

Source: patent publication US20100022629A1, “Dietary Methods and Compositions for Enhancing Metabolism and Reducing Reactive Oxygen Species” (Elixirin, priority 2006, published 2010)
